In ChEMBL document CHEMBL5532682, “Recent advances of tryptanthrin and its derivatives as potential anticancer agents” (RSC Med Chem, 2024):
Each block holds one molecule with its values, some of them ahead of it.

Key:
A549 [1] = test: Antiproliferative activity against human A549 cells; assay type: functional, cell-based
[2] = Antiproliferative activity against mouse MC3T3-E1 cells; assay type: toxicity, cell-based
MCF7 = test: Antiproliferative activity against human MCF7 cells assessed as inhibition of cell growth; assay type: functional, cell-based
HeLa = test: Antiproliferative activity against human HeLa cells assessed as inhibition of cell growth; assay type: functional, cell-based
A549 [3] = test: Antiproliferative activity against human A549 cells assessed as inhibition of cell growth; assay type: functional, cell-based
HT-29 = test: Antiproliferative activity against human HT-29 cells; assay type: functional, cell-based
[4] = Cytotoxicity activity against human HDF cells; assay type: toxicity, cell-based; conditions: HDF cells (NHDF)
PANC-1 = test: Antiproliferative activity against human PANC-1 cells; assay type: functional, cell-based
MDA-MB-231 [5] = test: Antiproliferative activity against human MDA-MB-231 cells; assay type: functional, cell-based
HCT-116 [6] = test: Antiproliferative activity against human HCT-116 cells measured after 48 hrs by MTT assay; assay type: functional, cell-based; conditions: HCT-116, 48 h
MDA-MB-231 [7] = test: Antiproliferative activity against human MDA-MB-231 cells measured after 48 hrs by MTT assay; assay type: functional, cell-based; conditions: MDA-MB-231, 48 h
A549 [8] = test: Antiproliferative activity against human A549 cells measured after 48 hrs by MTT assay; assay type: functional, cell-based; conditions: A549, 48 h
HCT-116 [9] = test: Antiproliferative activity against human HCT-116 cells measured after 48 hrs; assay type: functional, cell-based; conditions: HCT-116, 48 h
MDA-MB-231 [10] = test: Antiproliferative activity against human MDA-MB-231 cells measured after 48 hrs; assay type: functional, cell-based; conditions: MDA-MB-231, 48 h
A549 [11] = test: Antiproliferative activity against human A549 cells measured after 48 hrs; assay type: functional, cell-based; conditions: A549, 48 h

SMILES: O=C1c2cc(F)ccc2-n2c1nc1cc(Cl)ccc1c2=O
IC50 (A549 [1]): > 100 µM
IC50 [2]: > 100 µM

SMILES: O=c1c2ccccc2nc2n1-c1ccccc1/C2=N/N=c1/scc(-c2ccc(O)cc2)n1-c1ccccc1
IC50 (MCF7): 58.5 µM
IC50 (HeLa): 55.1 µM
IC50 (A549 [3]): 38.3 µM

SMILES: O=C1C2C=CC=CC2=NC2/C(=N\Nc3nc(-c4ccccc4)cs3)c3ccccc3N12 (stereo unspecified)
IC50 (MCF7): 40.5 µM
IC50 (HeLa): 46 µM
IC50 (A549 [3]): 52 µM

SMILES: Cc1nn(Br)c2c1[C@@]1(C(C#N)=C(N)O2)c2ccccc2-n2c1nc1ccccc1c2=O
IC50 (HT-29): 79.7 µM
IC50 [4]: > 100 µM
IC50 (PANC-1): 48.2 µM
IC50 (MDA-MB-231 [5]): 52.4 µM

SMILES: O=C1C2C=CC=CC2=NC2/C(=N\Nc3nc(-c4ccc([N+](=O)[O-])cc4)cs3)c3ccccc3N12 (stereo unspecified)
IC50 (MCF7): 59.1 µM
IC50 (HeLa): 67 µM
IC50 (A549 [3]): 49.1 µM

SMILES: O=C1c2c(ccc(F)c2Cl)-n2c1nc1ccc(F)c(Cl)c1c2=O
IC50 (A549 [1]): 0.51 µM
IC50 [2]: 68.3 µM

SMILES: O=c1c2ccccc2nc2n1-c1ccccc1/C2=N/N=c1/scc(-c2ccccc2)n1-c1ccccc1
IC50 (MCF7): 50.2 µM
IC50 (HeLa): 56.6 µM
IC50 (A549 [3]): 51.6 µM

SMILES: O=c1c2ccccc2nc2n1-c1ccccc1/C2=N/N=c1/scc(-c2ccc(F)cc2)n1-c1ccccc1
IC50 (MCF7): 60.1 µM
IC50 (HeLa): 52 µM
IC50 (A549 [3]): 44.4 µM

SMILES: O=C1c2c(ccc(Cl)c2Cl)-n2c1nc1ccc(F)c(Cl)c1c2=O
IC50 (A549 [1]): > 100 µM
IC50 [2]: 67.2 µM

SMILES: O=C1c2cc(Cl)ccc2-n2c1nc1ccc(Cl)c(Cl)c1c2=O
IC50 (A549 [1]): > 100 µM
IC50 [2]: > 100 µM

SMILES: O=C1c2c(ccc(F)c2N2CCNCC2)-n2c1nc1ccccc1c2=O
IC50 (HCT-116 [6]): > 100 µM
IC50 (MDA-MB-231 [7]): 65.8 µM
IC50 (A549 [8]): > 100 µM

SMILES: Cc1n[nH]c2c1[C@@]1(C(C#N)=C(N)O2)c2cc(-c3ccccc3)ccc2-n2c1nc1ccccc1c2=O
IC50 (HT-29): 97.9 µM
IC50 [4]: > 100 µM
IC50 (PANC-1): > 100 µM
IC50 (MDA-MB-231 [5]): 72.2 µM

SMILES: O=C1c2cc(F)ccc2-n2c1nc1ccc(F)c(Cl)c1c2=O
IC50 (A549 [1]): > 100 µM
IC50 [2]: 89.7 µM

SMILES: O=C1c2c(ccc(Cl)c2N2CCNCC2)-n2c1nc1ccccc1c2=O
IC50 (HCT-116 [6]): > 100 µM
IC50 (MDA-MB-231 [7]): 31.6 µM
IC50 (A549 [8]): 34.5 µM

SMILES: O=c1c2ccccc2nc2n1-c1ccccc1/C2=N/N=c1/scc(-c2ccc([N+](=O)[O-])cc2)n1-c1ccccc1
IC50 (MCF7): 43.1 µM
IC50 (HeLa): 67 µM
IC50 (A549 [3]): 52.8 µM

SMILES: O=C1c2cc(Cl)ccc2-n2c1nc1ccc(F)c(Cl)c1c2=O
IC50 (A549 [1]): > 100 µM
IC50 [2]: > 100 µM

SMILES: O=C1c2c(N3CCNCC3)cccc2-n2c1nc1ccccc1c2=O
IC50 (HCT-116 [9]): 90 µM
IC50 (MDA-MB-231 [10]): 56.1 µM
IC50 (HCT-116 [6]): > 100 µM
IC50 (MDA-MB-231 [7]): > 100 µM
IC50 (A549 [8]): > 100 µM
IC50 (A549 [11]): 13.7 µM

SMILES: CC[C@@]1(O)C(=O)OCc2c1cc1n(c2=O)Cc2cc3ccccc3nc2-1 [CAMPTOTHECIN]
IC50 (A549 [1]): 0.39 µM

Second part, led by results:

IC50 (HCT-116 [6]): > 100 µM
IC50 (MDA-MB-231 [7]): > 100 µM
IC50 (A549 [8]): > 100 µM
SMILES: Cc1ccc2c(c1N1CCCCC1)C(=O)c1nc3ccccc3c(=O)n1-2

IC50 (HCT-116 [9]): > 100 µM
IC50 (MDA-MB-231 [10]): > 100 µM
IC50 (HCT-116 [6]): > 100 µM
IC50 (MDA-MB-231 [7]): > 100 µM
IC50 (A549 [8]): 41.4 µM
IC50 (A549 [11]): 41.4 µM
SMILES: O=C1c2c(ccc(F)c2N2CCN(CCO)CC2)-n2c1nc1ccccc1c2=O

IC50 (HCT-116 [9]): 1.29 µM
IC50 (MDA-MB-231 [10]): 1.78 µM
IC50 (A549 [11]): 1.48 µM
SMILES: CCN(CC)c1cc2c(cc1Cl)C(=O)c1nc3ccccc3c(=O)n1-2

IC50 (A549 [1]): > 100 µM
SMILES: O=C1c2cc(Cl)ccc2-n2c1nc1cc(Cl)ccc1c2=O
IC50 [2]: > 100 µM

IC50 (HCT-116 [9]): > 100 µM
IC50 (MDA-MB-231 [10]): > 100 µM
IC50 (HCT-116 [6]): > 100 µM
IC50 (MDA-MB-231 [7]): > 100 µM
IC50 (A549 [8]): > 100 µM
IC50 (A549 [11]): > 100 µM
SMILES: O=C1c2c(ccc(F)c2N2CCOCC2)-n2c1nc1ccccc1c2=O

IC50 (HCT-116 [6]): 10.7 µM
IC50 (MDA-MB-231 [7]): > 100 µM
IC50 (A549 [8]): > 100 µM
SMILES: O=C1c2c(ccc(Cl)c2N2CCOCC2)-n2c1nc1ccccc1c2=O

IC50 (HCT-116 [6]): > 100 µM
IC50 (MDA-MB-231 [7]): > 100 µM
IC50 (A549 [8]): > 100 µM
SMILES: CN1CCN(c2c(F)ccc3c2C(=O)c2nc4ccccc4c(=O)n2-3)CC1

IC50 (HCT-116 [6]): > 100 µM
IC50 (MDA-MB-231 [7]): > 100 µM
IC50 (A549 [8]): > 100 µM
SMILES: O=C1c2c(ccc(Cl)c2N2CCCCC2)-n2c1nc1ccccc1c2=O

IC50 (HCT-116 [6]): > 100 µM
IC50 (MDA-MB-231 [7]): 87.3 µM
IC50 (A549 [8]): 98 µM
SMILES: Cc1ccc2c(c1N(C)C)C(=O)c1nc3ccccc3c(=O)n1-2

IC50 (HCT-116 [6]): > 100 µM
IC50 (MDA-MB-231 [7]): > 100 µM
IC50 (A549 [8]): 52.6 µM
SMILES: Cc1ccc2c(c1N1CCN(C)CC1)C(=O)c1nc3ccccc3c(=O)n1-2

IC50 (HCT-116 [6]): 1.29 µM
IC50 (MDA-MB-231 [7]): 1.78 µM
IC50 (A549 [8]): 1.48 µM
SMILES: CCN(CC)c1c(Cl)ccc2c1C(=O)c1nc3ccccc3c(=O)n1-2

IC50 (HCT-116 [9]): > 100 µM
IC50 (MDA-MB-231 [10]): > 100 µM
IC50 (HCT-116 [6]): > 100 µM
IC50 (MDA-MB-231 [7]): > 100 µM
IC50 (A549 [8]): > 100 µM
IC50 (A549 [11]): > 100 µM
SMILES: O=C1c2c(ccc(F)c2N2CCN(c3ccccn3)CC2)-n2c1nc1ccccc1c2=O

IC50 (HCT-116 [9]): 64.2 µM
IC50 (MDA-MB-231 [10]): > 100 µM
IC50 (HCT-116 [6]): 64.2 µM
IC50 (MDA-MB-231 [7]): > 100 µM
IC50 (A549 [8]): > 100 µM
IC50 (A549 [11]): > 100 µM
SMILES: O=C1c2c(ccc(F)c2N2CCCCC2)-n2c1nc1ccccc1c2=O
